Reference: US11946027B2, “Systems and methods for monitoring behavior of cells and/or tissues in culturing media” (Purdue Research Foundation, priority 2019, dated 2024)

How the values were obtained:
MCF7 cells [1] = assay: Impedimetric cytotoxicity of MCF7 cells on the scaffold system with Dox; type: cell-based; conditions: 30 kHz
Description: The scaffold system remained afloat on the medium, wherein the recording electrodes were entirely surrounded with polyimide elastomers. The flexible conductors were ACF cables (HST-9805-210, Elform, Inc., USA) placed on the sponge-like PDMS buoyant member and wired to an external data acquisition system (E4980AL Precision LCR meter, Keysight Technologies, USA) through the air. […] From about 16 hours later, drastic increase of the impedance occurred due to the cell aggregation and continuous proliferation. This tendency was more obvious in the MCF7 cells because the population doubling time of MCF7 cells (about 29 hours) is shorter than that of SKOV3 cells (about 48 hours) and HUVEC cells (about 60 hours). Consistently, the impedance of the MCF7 cells increased proportionally to the cellular density (FIG. 3C).
(§1) The impedance was measured by using an LCR meter (Agilent 4294A, USA) with the voltage (between two adjacent recording electrodes) of about 1 mV for 48 hours at the frequencies of 1, 5, 10, 20, 30, 50, 100, 150, 200 and 250 kHz. The scaffold system was placed in the incubator (5% CO^2, 37° C.; Thermo Scientific, USA) and wired to the LCR meter located outside of the incubator via flexible ACF cables. The data was collected every 2 hours from the scaffold system.

MCF7 cells [2] = assay: Real-time impedance monitoring in three-layer stacked scaffold seeded with MCF7 cells, Dox introduced on the top; type: cell-based; conditions: 1 mM Dox introduced on the top at 1-day incubation
Description: In this configuration, each layer of the scaffold system remains spaced apart a fixed distance of about 5 mm along the perimeter by using spacers made of PDMS.
as §1

[3] = hydrophilic and water-soluble; Doxorubicin Hydrochloride, Fisher; cited from earlier work
cardiomyocytes = assay: ECG recording of cardiomyocytes on the scaffold in response to norepinephrine; type: cell-based, neonatal mice; conditions: cardiomyocytes at day 8
From the text: The beating rate decreased from 288 bpm to 60 bpm and to 36 bpm, whereas the amplitude increased from 66 μV to 83 μV and to 511 μV at day 2, 6, and 8, respectively. The results imply that spontaneous contractions of the individual cells initially occurred, followed by stronger and more synchronized contractions as the cells become more in contact each other. […] A representative microscopy image in FIG. 4C highlights the embedded four-channel-multiplexed sensing electrodes with the cardiomyocytes at day 8 within the domain of 1.4×1.4 mm^2. The results in FIG. 4D indicate the synchronized beating rate (about 0.63 Hz), amplitude (638˜763 μV), and peak width (˜about 0.6 sec). 3D mapping results of the action potentials (FIG. 4E) obtained from the total 48 ECG sensors (4×4 array in each layer) reveal the spontaneous beating activities of the cardiomyocytes at day 2, 6, and 8 without showing any toxic effect.
For cardiomyocyte isolation, primary neonatal mice cardiomyocytes were prepared according to the Pierce Primary Cardiomyocyte Isolation Kit (Thermo Scientific, USA). Briefly, neonatal hearts were isolated from about 1 to 3 days old neonatal mice and placed into separate sterile microcentrifuge tubes containing 500 μL of ice cold Hank's Balanced Salt Solution (HBSS). […]

With `COc1cccc2c1C(=O)c1c(O)c3c(c(O)c1C2=O)C[C@@](O)(C(=O)CO)C[C@@H]3O[C@H]1C[C@H](N)[C@H](O)[C@H](C)O1` [Dox, doxorubicin] the “time after drug administration at which impedance started to decrease” value (MCF7 cells [1]; 100 μM Dox introduced at 1-day incubation) was no more than 4 h, the “decrease of the impedance” value (MCF7 cells [1]; low drug administration 10 μM) was “no substantial decrease of the impedance” and the “rate of impedance decrease following drug administration, bottom layer” value (MCF7 cells [2]; bottom scaffold layer) was “about 1.6 Ω/hr”. For the same compound, the “rate of impedance decrease following drug administration, middle layer” value (MCF7 cells [2]; middle scaffold layer) was “about 5.4 Ω/hr” and the solubility [3] was “about 50 mg/ml”.

In the case of `NC[C@H](O)c1ccc(O)c(O)c1` [norepinephrine], the “increase of beating rate” value (cardiomyocytes; addition of 100 μL of norepinephrine (bitartrate solution 10 μM) into the medium) was “nearly two-fold” and the “time after NE administration to increase of beating rate” value (cardiomyocytes; addition of 100 μL of norepinephrine into the medium) was no more than 3 min.
